One assay has as its system F3. Description: Cell proliferation assay (Cell Counting Kit 8). The class given is cell-based. Particulars: 96 h; F3 (normal neural stem cell line), 4 days; read-out: Growth inhibitory IC50 (GI50). From the text:
(§1) Supplementary materials and methods […]
(§2) Cell lines and culture conditions
(§3) Glioblastoma cell line, LN229, was obtained from the American Type Culture Collection (ATCC, Manassas, VA, USA). Normal fibroblast cell lines TIG3 and WI-38, TM31 (low grade glioma) were obtained from the RIKEN Bioresource Research Center (Tsukuba, Japan). Onda10 and KINGS1 (low grade glioma) cell lines were obtained from the Japanese Collection of Research Bioresources (Ibaraki, Japan). F3 is utilized as a neural stem cell line{Kim, 2004 #1412}{Natsume, 2013 #1009}. All cells were maintained in DMEM medium (Wako, Osaka, Japan) containing 5% fetal bovine serum (FBS, Thermo Fisher Scientific, Waltham, MA, USA) and 1% penicillin-streptomycin (Wako). […]
(§4) For the cell proliferation assay, cells at a density of 1 × 10^5 cells per well were seeded before treatment with LSD1 inhibitors. Cell proliferation was measured after 4 days using a Cell Counting Kit 8 (Dojindo, Kumamoto, Japan) according to the manufacturer ’s […]
(§5) instructions. For GSC cells, the CellTiter-Glo 3D Viability Assay (Promega, Madison, WI, USA) was used to measure the living cells. […]
(Formazan colour is commonly taken as a measure of viable cells.)

The test system of another assay is KINGS1. Briefly: Cell proliferation assay (Cell Counting Kit 8). The format is cell-based. The settings on record: Homo sapiens, KINGS-1, 96 h; KINGS1 (grade III glioma), 4 days; read-out: Growth inhibitory IC50 (GI50).
Excerpt: as §1, §2, §3, §4, §5

The next assay deals with LN229. Description: Cell proliferation assay (Cell Counting Kit 8). The class given is cell-based. Particulars: Homo sapiens, LN-229, 96 h; LN229 (GBM cell line), 4 days; read-out: Growth inhibitory IC50 (GI50).
Excerpt: as §1, §2, §3, §4, §5

The test system of another assay is Onda10. Description: Cell proliferation assay (Cell Counting Kit 8). The settings on record: 96 h; Onda10 (grade III glioma), 4 days; read-out: Growth inhibitory IC50 (GI50). The class given is cell-based.
Excerpt: as §1, §2, §3, §4, §5

For a further assay, the system named is TIG3. Description: Cell proliferation assay (Cell Counting Kit 8). The format is cell-based. The settings on record: Homo sapiens, TIG-3, 96 h; TIG3 (normal fibroblast), 4 days; read-out: Growth inhibitory IC50 (GI50).
Excerpt: as §1, §2, §3, §4, §5

The next assay relates to TM31. Briefly: Cell proliferation assay (Cell Counting Kit 8). The class given is cell-based. Particulars: 96 h; TM31 (grade III glioma), 4 days; read-out: Growth inhibitory IC50 (GI50).
Excerpt: as §1, §2, §3, §4, §5

The test system of another assay is WI38. Briefly: Cell proliferation assay (Cell Counting Kit 8). The class given is cell-based. Particulars: Homo sapiens, WI-38, 96 h; WI38 (normal fibroblast), 4 days; read-out: Growth inhibitory IC50 (GI50).
Excerpt: as §1, §2, §3, §4, §5

Assay [1] concerns GSC1228 intracranial xenograft. Description: Intracranial xenograft mouse model inoculated with GSC1228 cells. The class given is in vivo, NOD/SCID mice. As to the method: All experiments were performed under protocols approved by the Institutional Animal Care and Use Committee of Nagoya University of Graduate School of Medicine. Cells (1 × 10^5 cells per mouse) were injected intracranially into 6-week-old female NOD/SCID mice (n = 20, SLC, Shizuoka, Japan). Four weeks after the injection, S2172 or DMSO were intravenously injected five days a week for 3 weeks (10 mg/kg per day, 15 injections in total). We used established guidelines to determine the sample size for the mouse experiments. The mice were assigned randomly to experimental and control groups. There was no blinding applied in the experiment.
We utilized intracranial xenograft mouse models inoculated with GSC1228 cells. After 30 days of inoculation, we administered S2172 intravenously at 10 mg/kg five times a week for three weeks. […] Following treatment with S2172 for one week, mice were sacrificed, and the xenograft glioma tissues were examined. The H3K4me2 level was increased in the tumor regions treated with S2172 (P < 0.01, Fig. 4B). Consistent with the in vitro analysis, the protein levels of Nestin and SOX2 were decreased in tumor tissues (Fig. 4C).
Fig. 4 S2172 eradicates tumor cells in GSC brain tumor mouse model. A Tumor volume was assessed by MRI after treatment with either DMSO or S2172 for 15 times. Error bars represent the SD. *P < 0.05. n = 7. B H3K4me2 level in the tumor tissue from the mouse brain (left panel). Quantification of western blot band signal intensity (right panel). The y-axis in the panel indicates the relative signal intensity of each protein normalized to histone H3. […] Quantification of western blot band signal intensity (right panel). […]
The density of bands was quantified using ImageJ software (https://imagej.nih.gov/ij/). […]
When mice were scanned with MRI, mice were anesthetized with isoflurane (3% in air) and placed in MRS 3017 Benchtop MRI Systems (MR Solutions, Guildford, UK). Using MRI images, tumor volumes were obtained by compiling tumor areas from all slices that contained tumors and calculated by ImageJ software (https://imagej.nih.gov/ij/) {Towner, […]

Where only a bound is given, the exact number is not on record here.

In the case of `NC1CCC(NC2CC2c2cc(F)cc(F)c2OCc2ccccc2)CC1` (stereo not shown) [S2172], the 50% inhibitory concentration (IC50) (commonly the midpoint of a concentration-inhibition curve) in the assay with F3 was 22.5 µM; with KINGS1, 33 µM; in the assay on LN229, 8.2 µM; with Onda10, 21 µM; in the assay on TIG3, more than 40 µM; in the assay on TM31, 17 µM. Moreover, the concentration for half-maximal inhibition (IC50) with WI38 came out at 29.9 µM. Also, in assay [1] (10 mg/kg intravenously five times a week for three weeks, P < 0.05 MRI, P < 0.01 HE), the “tumor area (MRI; HE-stained tissue images)” value is given as “significantly smaller”. The “protein levels of Nestin and SOX2 in tumor tissues” value in assay [1] (after one week of treatment) was “decreased”. For the same compound, in assay [1] (after one week of treatment, P < 0.01), the “H3K4me2 level in tumor regions” value is listed as “increased”.
